In patent US20240199611A1, “ANTIBACTERIAL COMPOUNDS” (JANSSEN SCIENCES IRELAND UNLIMITED COMPANY, priority 2021, published 2024):
In brackets after ≈: the same amount, converted by molar mass. Read-outs that look alike come from different tables or passages of the source.

Key:
Ca Ch = details: read-out: CVS Ca Ch IC50
[1] = Mitochondrial toxicity (Glu/Gal) assay; type: cell-based
Excerpt: (§1) The compounds of the invention/examples may have advantages associated with in vitro potency, kill kinetics (i.e. bactericidal effect) in vitro, PK properties, food effect, safety/toxicity (including liver toxicity, coagulation, 5-LO oxygenase), metabolic stability, Ames II negativity, MNT negativity, aqueous based solubility (and ability to formulate) and/or cardiovascular effect e.g. on animals (e.g. anesthetized guinea pig). The data below that was generated/calculated may be obtained using standard methods/assays, for instance that are available in the literature or which may be performed by a supplier (e.g. Microsomal Stability Assay—Cyprotex, Mitochondrial toxicity (Glu/Gal) assay—Cyprotex, as well as literature CYP cocktail inhibition assays). In some instances, GSH was measured (reactive metabolites, glucuronidation) to observe if a dihydrodiol is observed by LCMS (fragmentation ions), which would correspond to a dihydroxylation on the core heterocycle.

[2] = in vivo
Na Ch = test: CVS Na Ch
[3] = system: Mycobacterium tuberculosis strain EH4.0 expressing green-fluorescent protein (GFP); test: microbe, parasite or virus in culture; type: cell-based; details: read-out: pIC50 (converted)
[4] = GSH measurement (reactive metabolites); type: in vitro ADME
Excerpt: as §1

AMES II = type: cell-based
Excerpt: as §1

Kinase panel = test: Kinase panel; type: biochemical
Cyp 3A4 = Cyp 3A4 induction; details: at 1 μM
[5] = type: physicochemical; details: 30 μM; for chemical stability (% by LCMS), DMSO: 0 h; for chemical stability (% by LCMS), ACN/H2O / chemical stability (% by LCMS), ACN/0.1N HCl: 48 h; for chemical stability (% by LCMS), ACN/0.1N HCl: pH 1.6
Procedure: Chemical Stability Testing
Preliminary Protocol • Add 3 μl of a 10 mM DMSO stock solution to 1 ml of the following solvents in a 1.5 ml HPLC vial. • DMSO (reference solution) • H2O/Acetonitril 1/1 (assay solution) • 0.1N HCl/Acetonitril 1/1 (assay solution) • Mix well, […] LCMS • Compare the chromatograms of the two assay solutions with the reference solution and report the additional peaks as degradation peaks

M. tuberculosis H37Rv = details: strain M. tuberculosis H37Rv, inside macrophages; cited from earlier work

Row | SMILES | melting point [°C] | IC50 ([3]; Test 1 (and/or Test 2)) [nM] | chemical stability (% by LCMS), DMSO [5] [%] | chemical stability (% by LCMS), ACN/H2O [5] [%] | chemical stability (% by LCMS), ACN/0.1N HCl [5] [%] | further results
1 | CCc1nc2ccc(Cl)cn2c1C(=O)NCc1ccc(N2CCN(S(=O)(=O)C(F)(F)F)C=N2)cc1 [Compound 1] | 183.46 |  |  |  |  | IC50 (Ca Ch): > 10000 nM; Glu/Gal assay ratio (mitotoxicity) [1]: < 3; bioavailability [2]: good bioavailability
2 | CCc1nc2ccc(Cl)cn2c1C(=O)NCc1ccc(N2CCN(S(=O)(=O)C(F)(F)F)C(OC)=N2)cc1 [Compound 6] |  |  |  |  |  | IC50 (Na Ch): > 10000 nM; Glu/Gal assay ratio (mitotoxicity) [1]: < 3
3 | CCc1nc2ccc(Cl)cn2c1C(=O)NCc1ccc(N2CCN(S(=O)(=O)C(F)(F)F)C=N2)c(F)c1 [Compound 9] |  |  |  |  |  | IC50 (Na Ch): > 10000 nM
4 | CCc1nc2ncc(Cl)cn2c1C(=O)NCc1ccc(N2CCN(S(=O)(=O)C(F)(F)F)C=N2)cc1 [Compound 13] | 215.87 |  |  |  |  | IC50 (Na Ch): > 10000 nM
5 | CCc1nc2ccc(Cl)cn2c1C(=O)NCc1ccc(N2CCN(S(=O)(=O)C(F)(F)F)C=N2)cc1F [Compound 16] | 158.1 |  |  |  |  | IC50 (Na Ch): > 10000 nM
6 | CCc1nc2ccc(Cl)cn2c1C(=O)NCc1ccc(N2CCN(S(C)(=O)=O)C=N2)cc1 [Compound 20] | 209.36 |  |  |  |  | IC50 (Ca Ch): > 10000 nM
7 | CCc1nc2ccc(Cl)cn2c1C(=O)NCc1ccc(N2CCN(S(=O)(=O)C(F)(F)F)C=N2)c(OC)c1 [Compound 25] | 125.56 | 10 |  |  |  | 
8 | CCc1nc2ccc(OC)cn2c1C(=O)NCc1ccc(N2CCN(S(=O)(=O)C(F)(F)F)C(OC)=N2)cc1 [Compound 36] | 142.03 | 3.98 |  |  |  | 
9 | CCc1nc2ccc(COC)cn2c1C(=O)NCc1ccc(N2CCN(S(=O)(=O)C(F)(F)F)C=N2)cc1 [Compound 43] | 169.05 | 10 |  |  |  | 
10 | CCc1nc2ncc(Cl)cn2c1C(=O)NCc1cc(F)c(N2CCN(S(=O)(=O)C(F)(F)F)C=N2)c(F)c1 [Compound 47] | 149.44 | 3.16 |  |  |  | 
11 | CCc1nc2ccc(Cl)cn2c1C(=O)NCc1ccc(N2CCN(c3nccs3)C(OC)=N2)cc1 [Compound 54] | 233.23 | 11 |  |  |  | 
12 | CCc1nc2ccc(C#N)cn2c1C(=O)NCc1ccc(N2CCN(S(=O)(=O)C(F)(F)F)C(OC)=N2)c(F)c1 [Compound 73] | 212.08 |  |  |  |  | IC50 (Na Ch): > 10000 nM; GSH / reactive metabolites [4]: no measure of GSH
13 | O=C(NCc1ccc(N2CCN(S(=O)(=O)C(F)(F)F)C=N2)c(F)c1)c1c(C(F)(F)F)nc2ccccn12 [Compound 152] |  |  |  |  |  | GSH / reactive metabolites [4]: formation of reactive metabolites was blocked; Glu/Gal assay ratio (mitotoxicity) [1]: < 3; bioavailability [2]: good bioavailaibility
14 | CCc1nc2ncc(C)cn2c1C(=O)NCc1ccc(N2CCN(S(=O)(=O)C(F)(F)F)C=N2)c(F)c1 [Compound 161] |  |  |  |  |  | IC50 (Ca Ch): > 10000 nM; Glu/Gal assay ratio (mitotoxicity) [1]: < 3; AMES II (AMES II): negative; Kinase panel (Kinase panel): negative; bioavailability [2]: good bioavailaibility; Cyp 3A4 induction (% control) (Cyp 3A4): 3.0 % control
15 | CCc1nc2c(F)cc(Cl)cn2c1C(=O)NCc1ccc(N2CCN(S(=O)(=O)C(F)(F)F)C(C3CC3)=N2)c(F)c1 [Compound 231] |  | 0.891 | 98 | 98 | 98 | 
16 | CCC1=NN(c2ccc(CNC(=O)c3c(C(F)(F)F)nc4ccccn34)cc2F)CCN1S(=O)(=O)C(F)(F)F [Compound 233] |  | 1.07 | 99 | 99 | 99 | 

Row | SMILES | melting point [°C] | IC50 ([3]; Test 1 (and/or Test 2)) [nM] | chemical stability (% by LCMS), DMSO [5] [%] | chemical stability (% by LCMS), ACN/H2O [5] [%] | chemical stability (% by LCMS), ACN/0.1N HCl [5] [%] | further results
17 | CCC1=NN(c2ccc(CNC(=O)c3c(CC)nc4ncc(C)cn34)cc2F)CCN1S(=O)(=O)C(F)(F)F [Compound 234] |  | 0.324 | 96 | 95 | 97 | 
18 | CCC1=NN(c2ncc(CNC(=O)c3c(CC)nc4ncc(C)cn34)cc2F)CCN1S(=O)(=O)C(F)(F)F [Compound 235] |  | 6.31 | 99 | 99 | 98 | 
19 | CCc1nc2c(F)cc(Cl)cn2c1C(=O)NCc1ccc(N2CCN(S(=O)(=O)C(F)(F)F)C(C(C)C)=N2)c(F)c1 [Compound 238] |  | 1.58 | 100 | 100 | 100 | 
20 | Cc1ccc2nc(C(F)F)c(C(=O)NCc3ccc(N4CCN(S(=O)(=O)C(F)(F)F)C(C(C)C)=N4)c(F)c3)n2c1 [Compound 240] |  | 0.603 | 100 | 100 | 100 | 
21 | CCc1nc2cc(C)c(C)cn2c1C(=O)NCc1ccc(N2CCN(S(=O)(=O)C(F)(F)F)C(C(C)C)=N2)c(F)c1 [Compound 241] |  | 3.47 | 100 | 100 | 100 | 
22 | CC(C)C1=NN(c2ccc(CNC(=O)c3c(C(F)(F)F)nc4ccccn34)cc2F)CCN1S(=O)(=O)C(F)(F)F [Compound 247] |  | 1.38 | 96 | 100 | 100 | 
23 | CCc1nc2ncc(C)cn2c1C(=O)NCc1ccc(N2CCN(S(=O)(=O)C(F)(F)F)C(C(C)C)=N2)c(F)c1 [Compound 248] |  | 0.224 | 92 | 100 | 100 | 
24 | CCc1nc2ncc(C)cn2c1C(=O)NCc1ccc(N2CCN(S(=O)(=O)C(F)(F)F)C(C)=N2)c(F)c1 [Compound 251] |  | 0.437 | 100 | 100 | 100 | 
25 | CC1=NN(c2ccc(CNC(=O)c3c(C(F)(F)F)nc4ccccn34)cc2F)CCN1S(=O)(=O)C(F)(F)F [Compound 252] |  | 1.2 | 99 | 99 | 99 | 
26 | CC1=NN(c2ccc(CNC(=O)c3c(C(F)(F)F)nc4ccc(C)cn34)cc2F)CCN1S(=O)(=O)C(F)(F)F [Compound 253] |  | 1.86 | 100 | 100 | 100 | 
27 | CCc1nc2ncc(C)cn2c1C(=O)NCc1cnc(N2CCN(S(=O)(=O)C(F)(F)F)C(C)=N2)c(F)c1 [Compound 255] |  | 6.17 | 100 | 100 | 98 | 
28 | CC1=NN(c2ccc(CNC(=O)c3c(C(F)(F)F)nc4ncc(C)cn34)cc2F)CCN1S(=O)(=O)C(F)(F)F [Compound 257] |  | 6.03 | 99 | 99 | 99 | 
29 | CCc1nc2ccc(C)cn2c1C(=O)NCc1ccc(N2CCN(S(=O)(=O)C(F)(F)F)C(C(=O)OC)=N2)cc1 [Compound 258] |  | 6.17 | 99 | 99 | 100 | 
30 | CCc1nc2ccc(C)cn2c1C(=O)NCc1ccc(N2CCN(S(=O)(=O)C(F)(F)F)C(C(=O)N(C)C)=N2)cc1 [Compound 259] |  |  | 98 | 100 | 100 | IC50 [3]: 10.7 nM
31 | CCc1nc2ccc(C)cn2c1C(=O)NCc1ccc(N2CCN(S(=O)(=O)C(F)(F)F)C(C(N)=O)=N2)cc1 [Compound 260] |  | 32.4 | 98 | 100 | 100 | 
32 | CCc1nc2ccc(Cl)cn2c1C(=O)NCc1ccc(N2CCC(c3ccc(OC(F)(F)F)cc3)CC2)cc1 [Compound Q203] |  |  |  |  |  | MIC50 (M. tuberculosis H37Rv): 0.28 nM (≈ 0.156 ng/mL)
